In patent USRE46228E1, “Pigmentation-regulating compounds” (LIPOTEC, S.A., priority 2007, dated 2016):

Legend:
[1] = tested on: human keratinocytes; experiment: Photoprotecting efficacy in human keratinocyte cultures (solar simulation irradiation, Neutral Red viability); format: cell-based; details: 150 μg/mL
Description: The human keratinocytes were maintained in culture for 24 hours in 96 well plates to form monolayers and the cells were pre-incubated in the dark with 150 μg/mL of 7-methoxy-6-palmitoyl-2,2-dimethylchromane or saline phosphate buffer (control) for one hour at 37° C. and humidified air with 5% CO2. The cells were then irradiated with a solar simulation lamp with an energy of 37 J/cm^2 at room temperature for 150 minutes. A control plate was maintained in the dark for the same time at room temperature. The medium of the cells was replaced after the irradiation period with fresh medium and the cells were incubated for 24 additional hours. The cell viability was determined by means of the Neutral Red dye, measuring the optical density at 540 nm in a spectrophotometer.
The photoprotecting efficacy was determined by comparing the viability obtained in the cells treated with 7-methoxy-6-palmitoyl-2,2-dimethylchromane in relation to the response of the irradiated and non-irradiated control cells.

[2] = tested on: human melanocytes; experiment: Depigmenting efficacy in human melanocyte cultures (microscopy count of melanin-containing cells); format: cell-based; details: 0.1 mM compound, 5 days, fresh medium daily; normalized to control sample (0)
Description: The melanin content was is seen directly by means of microscopy using a 40 magnification lens. The depigmenting efficacy was is determined by counting the number of cells containing melanin and the total number of cells, and the obtained results were are normalized in relation to the whitening efficacy of a control sample.

[3] = tested on: mushroom tyrosinase; experiment: Activity assay on the action of mushroom tyrosinase in vitro (L-Dopa substrate, melanin read at 492 nm); format: biochemical; details: melanin formed normalized to control sample (100), 10 min at 37° C.
Description: The assay is performed in 96 well plates and the samples are performed in triplicate. The control sample contains 80 μL of buffer (150 mM HEPES), 10 μL of mushroom tyrosinase of 10 μg/μL and 10 μL of 10 mM L-Dopa substrate. […] The samples thus prepared are incubated at 37° C. for 10 minutes. Then the plate containing the samples is cooled for 5 minutes on ice to stop the enzymatic reaction. To quantify the melanin produced it is measured in the plate reader at a length of 492 nm.

[4] = molecular target: T1, endogenous tyrosinase extracted from human melanocytes (Homo sapiens, UniProt P14679); experiment: Activity assay on endogenous tyrosinase extracted from human melanocytes (L-Dopa substrate, absorbance 475 nm); format: biochemical; details: 1 mM compound; 30 min incubation with enzyme; one hour after adding L-Dopa; relative to control (100)
T1 construct: The endogenous tyrosine of the human melanocytes seeded at a confluence of 95% is extracted; endogenous in cells; host or cells: human melanocytes (cultured; extract used)
T1 sequence (P14679 19-529): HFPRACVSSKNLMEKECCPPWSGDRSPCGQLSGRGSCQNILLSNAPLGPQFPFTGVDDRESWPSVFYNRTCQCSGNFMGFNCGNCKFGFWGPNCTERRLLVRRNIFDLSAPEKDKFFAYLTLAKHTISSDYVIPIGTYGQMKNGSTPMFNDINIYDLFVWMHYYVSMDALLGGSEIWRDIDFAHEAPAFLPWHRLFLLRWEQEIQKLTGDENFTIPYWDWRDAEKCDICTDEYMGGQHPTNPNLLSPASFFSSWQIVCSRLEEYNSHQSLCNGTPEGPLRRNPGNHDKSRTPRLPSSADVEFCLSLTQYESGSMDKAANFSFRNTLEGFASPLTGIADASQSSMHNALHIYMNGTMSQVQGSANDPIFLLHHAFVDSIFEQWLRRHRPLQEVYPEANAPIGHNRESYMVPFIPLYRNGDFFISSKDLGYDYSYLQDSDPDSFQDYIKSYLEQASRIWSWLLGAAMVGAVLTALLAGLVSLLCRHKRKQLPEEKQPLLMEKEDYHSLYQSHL
Description: The human melanocytes are cultured in DMEM medium supplemented with 10% FBS, 1% penicillin/streptomycin and 100 nM PMA. […] The endogenous […] of the human melanocytes seeded at a confluence of 95% is extracted. The assay is performed after extracting and quantifying the enzymatic content. […] To check the enzymatic activity after the treatment, the synthetic L-Dopa (10 mM) substrate is added, measuring absorbance at a wavelength of 475 nm one hour after having added L-Dopa. This measurement allows evaluating the melanin content produced.

Row | Compound | PHOTOPROTECTTNG EFFICACY ([1]; viability of treated cells compared with irradiated and non-irradiated control cells) [%] | viability at 150 µg/mL ([1]; Homo sapiens, Keratinocyte, light or radiation study, 1 h pre-incubation, irradiated 37 J/cm^2 for 150 min, 24 h later, non-irradiated control 100%, irradiated control 13.8%, read-out: CELL VIABILITY) [%] | % DEPIGMENTING EFFICACY [2] [%] | % MELANIN ([3]; 1 mM compound) [%] | % MELANIN [4] [%] | % MELANIN ([3]; 0.1 mM compound) [%]
1 | CCCCCCCCCCCCCCCC(=O)c1cc2c(cc1OC)OC(C)(C)CC2 [7-methoxy-6-palmitoyl-2,2-dimethylchromane] | 254.9 | 49.1 | 45.9 | 63.0 | 57.0 | 
2 | O=c1cc(CO)occ1O [Kojic acid, reference compound] |  |  | 30.2 |  |  | 44.5
3 | COc1cc2c(cc1O)CCC(C)(C)O2 [Lipochroman-6, 6-hydroxy-7-methoxy-2,2-dimethylchromane, reference compound] |  |  |  | 96.6 | 79.8 | 
